Where “and” joins values, the source holds several entries; their conditions need not be identical. Equal entries are not always repeated.
Experiments:
[1] = tested on: IOP of Dutch Belted rabbits having elevated IOP; test: Brinzolamide anterior sub-Tenon's or topical administration in rabbits with elevated IOP, Example 4; assay type: in vivo; conditions: for mean percent IOP change from baseline compared to BSS control: over 7 days
Protocol: Eyes of Dutch Belted rabbits having elevated IOP were injected in the anterior segment with a carbonic anhydrase inhibitor.
Methods: Baseline IOP was measured daily for 5 days and averaged. Seven rabbits received one anterior sub-Tenon's capsule administration of 800 μl of a non-optimized 1% ophthalmic suspension of brinzolamide (AZOPT®). Seven rabbits received a 1% ophthalmic suspension of brinzolamide (AZOPT®) delivered topically once per day for seven days. Seven rabbits received one anterior sub-Tenon's administration of 800 μl of BSS®. IOP was monitored daily at 2 hours after topical drops were administered, for seven days, and weekly thereafter until IOP measurements remained the same as baseline for two measurements. […] Mean pretreatment IOP was 27.41 mm Hg. Mean change in IOP for this group was +0.18 mm Hg. Rabbits receiving either daily topical administration or subtenon's injection of brinzolamide experienced sustained lowering of IOP. For the topical administration group mean pretreatment IOP was 28.37 mm Hg. Mean change in IOP for this group was −2.48 mm Hg. […] For the group receiving one anterior subtenon's administration of a 1% brinzolamide ophthalmic suspension the mean pretreatment IOP was 27.44 mm Hg. Mean change in IOP for this group was −1.85 mm Hg. […] (See FIG. 4). […] Longer duration of action of the brinzolamide suspension from the subtenon's capsule could be achieved using higher concentration suspensions (e.g. 5% or 10%) or via encapsulation in sustained release dose forms such as microspheres.

[2] = tested on: IOP of patients with glaucoma caused by intravitreal injections of glucocorticoids; test: Single administration of anecortave acetate in patients with glaucoma caused by intravitreal glucocorticoids, Example 3; assay type: in vivo, human (patients)
From the text: All patients were on maximal tolerated medical therapy for glaucoma and continued on their pre-study medications for the duration of the study.
In this group of eight eyes, three of which had prior intraocular surgery, and all of which were on at least three different types of glaucoma medications (maximum 6 medications and a mean of 4.1 different drug classes) the IOP decrease was seen as early as one week (mean 11.4 mm Hg), and appeared to reach a maximum decrease at three weeks (mean 16.4 mm Hg). FIG. 3 illustrates the decrease in IOP observed in these patients for twenty months.

[3] = tested on: IOP of patients with primary open angle glaucoma; test: Single anterior juxtascleral depot (AJD) of anecortave acetate in glaucoma patients, Example 2; assay type: in vivo, human (patients); conditions: single ~24 mg AJD
From the text: Methods: An investigator IND and IRB approval was obtained. All patients gave informed consent. […] Prior glaucoma medications were not changed throughout study. Results: Six subjects with glaucoma and IOP≧23 mmHg (POAG [4], PDS [1], PXF [1]) mean age 59+/−8 years. Mean C/D ratio 0.8+/−0.2. Prior glaucoma medications included prostaglandins, beta blockers and/or alpha agonists (four on 1, one on 3, and one on 4). Mean pretreatment IOP was 31.3+/−11.3 mmHg. […] Patients were followed for twelve (12) months. The IOP-lowering effects peaked at approximately one month. The duration of effectiveness of the anecortave acetate was at least twelve (12) months. […] Treatment with prior glaucoma medications was discontinued for two patients due to the surprising IOP-lowering effects of the juxtasclerally administered anecortave acetate. This new method of treatment obviates problems with eye drops and many issues with compliance. Clinically meaningful additional medium-term IOP reduction is possible with a single anterior juxtascleral depot injection of anecortave acetate, much more than presently obtained with any currently available adjunctive medications.

IOP of patients = test: Randomized dose study of anecortave acetate AJD 3, 15, 30 mg vs vehicle, Example 6; assay type: in vivo, human (patients)
Protocol: Eligible patients were randomized into four groups to receive AJD as follows: • Anecortave acetate vehicle, 0.5 mL (21 patients) • Anecortave acetate 3 mg (0.5 mL, 0.6% suspension) (22 patients) • Anecortave acetate 15 mg (0.5 mL, 3% suspension) (20 patients) • Anecortave acetate 30 mg (0.5 mL, 6% suspension) (22 patients).
The site of the AJD injection was 3-5 mm from the limbus, inferiorly (between 4 and 8 o'clock, FIG. 1), and the drug was injected slowly (30-90 sec) using a 30 gauge needle.

[4] = tested on: IOP elevation associated with topical dexamethasone; conditions: topical administration, rabbits; cited from earlier work
[5] = tested on: myocilin expression in trabecular meshwork cells; conditions: cultured trabecular meshwork cells; cited from earlier work
IOP = conditions: intravitreal injection (Singh et al. 2004); cited from earlier work
[6] = mean pretreatment IOP 31.3+/-11.3 mmHg

For CCN[C@H]1CN(CCCOC)S(=O)(=O)c2sc(S(N)(=O)=O)cc21 [brinzolamide], the “maximum IOP lowering from baseline” value ([1]; 1% suspension topically once per day for seven days) was 11.1%, the “Mean change in IOP” value ([1]; 1% suspension topically once per day for seven days, mean pretreatment IOP 28.37 mm Hg) was −2.48 mm Hg and the “time of peak levels of IOP change” value ([1]; both topical and subtenon's groups) was no more than 3 days. The “maximum percent IOP lowering” value ([1]; one anterior sub-Tenon's administration of 800 μl 1% suspension) was 15.9%, the “Mean change in IOP” value ([1]; one anterior sub-Tenon's administration of 800 μl 1% suspension, mean pretreatment IOP 27.44 mm Hg) was −1.85 mm Hg and the “mean percent IOP change from baseline compared to BSS control” value ([1]; subtenon's injection group) was “statistically lower at all points”. The “mean percent IOP change from baseline compared to BSS control” value ([1]; topical administration group) was “statistically lower at all points”.

With CC(=O)OCC(=O)[C@@]1(O)CC[C@H]2[C@@H]3CCC4=CC(=O)CC[C@]4(C)C3=CC[C@@]21C [anecortave acetate, 4, 9(11)-pregnadien-17∝,21-diol-3,20-dione-21-acetate] the “IOP, individual eyes, 1 week” value ([2]; 1 week after single ~24 mg, baselines 34-57) was 30 mm Hg (2×) and 34 mm Hg (2×) and 24 mm Hg (2×) and 23 mm Hg, the “Mean IOP, 1 week” value ([2]; 1 week, mean baseline 40.125) was 28.43 mm Hg and the “IOP, individual eyes, 2 mon” value ([2]; 2 mon after single ~24 mg) was 30 mm Hg and 24 mm Hg and 16 mm Hg and 19 mm Hg and 23 mm Hg. For the same compound, the “Mean IOP, 2 mon” value ([2]; 2 mon, mean baseline 40.125) was 22 mm Hg, the “IOP, individual eyes, 2 weeks” value ([2]; 2 weeks after single ~24 mg, baselines 34-57) was 28 mm Hg (2×) and 32 mm Hg and 19 mm Hg (2×) and 23 mm Hg and 35 mm Hg and the “Mean IOP, 2 weeks” value ([2]; 2 weeks, mean baseline 40.125) was 24.8 mm Hg. The “IOP, individual eyes, 3 mon” value ([2]; 3 mon after single ~24 mg) was 32 mm Hg and 18 mm Hg (2×) and 21 mm Hg and 19 mm Hg, the “Mean IOP, 3 mon” value ([2]; 3 mon, mean baseline 40.125) was 19.3 mm Hg and the “IOP, individual eyes, 3 weeks” value ([2]; 3 weeks after single ~24 mg) was 30 mm Hg and 17 mm Hg and 19 mm Hg (2×) and 37 mm Hg. For the same compound, the “Mean IOP, 3 weeks” value ([2]; 3 weeks, mean baseline 40.125) was 24.4 mm Hg, the “IOP, individual eyes, 4 mon” value ([2]; 4 mon after single ~24 mg) was 17 mm Hg and 16 mm Hg and 23 mm Hg and 21 mm Hg and the “Mean IOP, 4 mon” value ([2]; 4 mon, mean baseline 40.125) was 20 mm Hg. For the same compound, the “IOP, individual eyes, 4 weeks” value ([2]; 4 weeks after single ~24 mg) was 30 mm Hg (2×) and 28 mm Hg and 31 mm Hg and 14 mm Hg and 21 mm Hg and 19 mm Hg and 36 mm Hg, the “Mean IOP, 4 weeks” value ([2]; 4 weeks, mean baseline 40.125) was 26.1 mm Hg and the “IOP, individual eyes, 5 mon” value ([2]; 5 mon after single ~24 mg) was 15 mm Hg and 17 mm Hg and 21 mm Hg and 22 mm Hg. For the same compound, the “Mean IOP, 5 mon” value ([2]; 5 mon, mean baseline 40.125) was 20 mm Hg, the “IOP, individual eyes, 6 mon” value ([2]; 6 mon after single ~24 mg) was 19 mm Hg (3×) and 15 mm Hg and the “Mean IOP, 6 mon” value ([2]; 6 mon, mean baseline 40.125) was 17.6 mm Hg. For the same compound, the “IOP, individual eyes, 6.2 mon” value ([2]; 6.2 mon after single ~24 mg) was 26 mm Hg, the “IOP, individual eyes, 6.5 mon” value ([2]; 6.5 mon after single ~24 mg) was 38 mm Hg and the “IOP, individual eyes, 7 mon” value ([2]; 7 mon after single ~24 mg) was 17 mm Hg and 18 mm Hg (2×). The “Mean IOP, 7 mon” value ([2]; 7 mon, mean baseline 40.125) was 17.6 mm Hg, the “Mean IOP, 8 mon” value ([2]; 8 mon) was 26.5 mm Hg and the “IOP, individual eyes, 8 mon” value ([2]; 8 mon after single ~24 mg) was 31 mm Hg and 22 mm Hg. For the same compound, the “Mean IOP, 9 mon” value ([2]; 9 mon) was 17.3 mm Hg, the “IOP, individual eyes, 9 mon” value ([2]; 9 mon after single ~24 mg) was 15 mm Hg and 19 mm Hg and 18 mm Hg and the “Mean IOP, 12 mon” value ([2]; 12 mon) was 19.6 mm Hg. The “IOP, individual eyes, 12 mon” value ([2]; 12 mon after single ~24 mg) was 15 mm Hg and 22 mm Hg (2×), the “Mean IOP, 13 mon” value ([2]; 13 mon) was 19.6 mm Hg and the “IOP, individual eyes, 13 mon” value ([2]; 13 mon after single ~24 mg) was 18 mm Hg and 22 mm Hg and 19 mm Hg. The “Mean IOP, 14 mon” value ([2]; 14 mon) was 25.5 mm Hg, the “IOP, individual eyes, 14 mon” value ([2]; 14 mon after single ~24 mg) was 25 mm Hg and 26 mm Hg and the “Mean IOP, 15 mon” value ([2]; 15 mon) was 24 mm Hg. The “IOP, individual eyes, 15 mon” value ([2]; 15 mon after single ~24 mg) was 26 mm Hg and 22 mm Hg, the “Mean IOP, 17 mon” value ([2]; 17 mon) was 18.5 mm Hg and the “IOP, individual eyes, 17 mon” value ([2]; 17 mon after single ~24 mg) was 19 mm Hg and 18 mm Hg. The “Mean IOP, 18 mon” value ([2]; 18 mon) was 18 mm Hg, the “IOP, individual eyes, 18 mon” value ([2]; 18 mon after single ~24 mg) was 19 mm Hg and 17 mm Hg and the “IOP, individual eyes, 20 mon” value ([2]; 20 mon after single ~24 mg) was 16 mm Hg. The “IOP decrease in all eyes” value ([2]; eight eyes, single ~24 mg) was “All eyes had marked IOP decrease”, the “mean IOP decrease at one week” value ([2]; eight eyes, single ~24 mg) was 11.4 mm Hg and the “mean IOP decrease at three weeks (maximum decrease)” value ([2]; eight eyes, single ~24 mg) was 16.4 mm Hg. The “IOP decrease in one eye at 2 months” value ([2]; eye that needed filtration surgery, resultant IOP 30 mm Hg) was 45%, the “time for which recurrence of elevated IOP was prevented” value ([2]; remaining five eyes, IOP elevation due to triamcinolone reversed) was “up to 12 months” and the adverse events ([2]; single ~24 mg) was “without adverse events”. The “duration of IOP reductions” value ([2]; single ~24 mg) was “at least 6 months”, the “patients avoiding glaucoma filtration surgery” value ([2]; single ~24 mg) was 75% and the “mean IOP decrease at 3 months (percent)” value [3] was 38.5%+/−21%. The “time at which IOP-lowering effects peaked” value [3] was “approximately one”, the “clinically significant adverse events” value ([3]; followed 12 months) was “No clinically significant adverse events occurred” and the duration of effectiveness ([3]; followed 12 months) was no less than 12 months. The “patients with >25% IOP decrease at 3 months” value ([3]; prior glaucoma medications unchanged, six subjects, IOP>=23 mmHg) was “Five of six”, the “mean IOP at 3 months” value [3, 6] was 16.4+/−6 mm Hg and the “mean IOP decrease at 3 months” value [3, 6] was 10.8+/−7.0 mmHg. For the same compound, the “patients whose prior glaucoma medications were discontinued due to IOP-lowering effect” value ([3]; six subjects) was “two”, the “patients who maintained an IOP of ≦21 mm Hg for 3 months” value (“patients who maintained an IOP” below) (IOP of patients; 3 mg group (22 patients)) was 7 patients and the “patients who maintained an IOP” value (IOP of patients; 15 mg group (20 patients)) was 6 patients. The “patients who maintained an IOP” value (IOP of patients; 30 mg group (22 patients)) was 11 patients, the “duration of IOP reductions after a single administration” value (IOP of patients; p<0.05 for all concentrations relative to vehicle at month 3, ANOVA) was no less than 3 months and the “effect on IOP elevation associated with topical dexamethasone” value [4] was “decreases the IOP elevation”. For the same compound, the “effect on dexamethasone induced myocilin expression” value [5] was “inhibition”.

For CC1(C)O[C@@H]2C[C@H]3[C@@H]4CCC5=CC(=O)C=C[C@]5(C)[C@@]4(F)[C@@H](O)C[C@]3(C)[C@]2(C(=O)CO)O1 [triamcinolone, triamcinolone acetonide], the IOP reached (IOP) is given as roughly 60 mm Hg and the “earliest onset of IOP elevation” value (IOP) is given as 4 days.

— patent US20080125406A1, “Method for Treating Primary and Secondary Forms of Glaucoma” (priority 2005, published 2008)
